According to ChEMBL document CHEMBL1201862, “PubChem BioAssay data set” (2004):
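Following 48 hours of exposure in 96-well plates, responses at five concentrations were used to interpolate endpoints linearly. Abbreviation: GI50, concentration required for 50% inhibition of growth.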 Active and inactive are the calls of the source. Cut-off read from the data, not from the text of the source: active = GI50 up to about 1.1 µM and inactive = higher.

What was measured:
Experiment in all cases: NCI anticancer screen, dose series, 48 h
CCRF-CEM = system: CCRF-CEM
MDA-MB-231 = system: MDA-MB-231
T47D = system: T47D
UACC-62 = system: UACC-62
NCI-H23 = system: NCI-H23
OVCAR-3 = system: OVCAR-3
SN12C = system: SN12C
COLO 205 = system: COLO 205
BT-549 = system: BT-549
NCI-H226 = system: NCI-H226
K562 = system: K562
Malme-3M = system: Malme-3M
NCI/ADR-RES = system: NCI/ADR-RES
OVCAR-4 = system: OVCAR-4
CAKI-1 = system: CAKI-1
SNB-75 = system: SNB-75
HOP-62 = system: HOP-62
HCT-15 = system: HCT-15
A498 = system: A498

Row | Compound | GI50 (CCRF-CEM) | GI50 (MDA-MB-231) | GI50 (T47D) | GI50 (UACC-62) | GI50 (NCI-H23) | GI50 (OVCAR-3) | GI50 (SN12C) | GI50 (COLO 205) | GI50 (BT-549) | GI50 (NCI-H226) | GI50 (K562) | GI50 (Malme-3M) | GI50 (NCI/ADR-RES) | GI50 (OVCAR-4) | GI50 (CAKI-1) | GI50 (SNB-75) | GI50 (HOP-62) | GI50 (HCT-15) [µM] | GI50 (A498)
1 | Cc1c2ccnc(C(=O)NCCN(C)C)c2cc2c3cc(O)ccc3n(C)c12 | < 0.0145 µM (active) | 0.314 µM (active) | 0.321 µM (active) | 0.15 µM (active) | 0.125 µM (active) | 0.357 µM (active) | 0.0596 µM (active) | 0.268 µM (active) | 2.06 µM (inactive) | 0.177 µM (active) | 0.123 µM (active) | 0.295 µM (active) | 0.766 µM (active) | 0.537 µM (active) | < 0.01 µM (active) | 0.33 µM (active) | 0.0368 µM (active) | 0.12 | 
2 | c1ccc2c(c1)SC1=C(SC(=C3SC4=C(S3)Sc3ccccc3S4)S1)S2 | > 100 µM (inactive) | > 100 µM (inactive) | > 100 µM (inactive) | > 100 µM (inactive) | > 100 µM (inactive) | > 100 µM (inactive) | > 100 µM (inactive) | > 100 µM (inactive) | > 100 µM (inactive) | > 100 µM (inactive) |  | > 100 µM (inactive) | > 100 µM (inactive) | > 100 µM (inactive) | > 100 µM (inactive) | 49.4 µM (inactive) | 36.9 µM (inactive) | > 100 | 
3 | O=C(CCc1cc(O)cc(O)c1)NCCc1cc(O)cc(OCc2ccccc2)c1 | > 10 µM (inactive) | 29.8 µM (inactive) | 34 µM (inactive) | 32.1 µM (inactive) | 23.4 µM (inactive) | 35.7 µM (inactive) | 39.3 µM (inactive) | 48.3 µM (inactive) | 29.6 µM (inactive) | 62.7 µM (inactive) | 36.1 µM (inactive) |  | > 100 µM (inactive) |  | > 100 µM (inactive) | 27.2 µM (inactive) | 43.6 µM (inactive) | 68.9 | > 100 µM (inactive)
4 | COc1cc2c(c3oc4c(O)cccc4c(=O)c13)CC(C(C)(O)CO)O2 (centres undefined) | 21.3 µM (inactive) | 63.7 µM (inactive) | 75.7 µM (inactive) | 27.1 µM (inactive) | 95.7 µM (inactive) | > 100 µM (inactive) | 60.1 µM (inactive) | > 100 µM (inactive) | 34.5 µM (inactive) | > 100 µM (inactive) | 55.6 µM (inactive) | 47.5 µM (inactive) | > 100 µM (inactive) |  | 39.9 µM (inactive) |  | > 100 µM (inactive) | > 100 | 
5 | CCOC(=O)CCC(NC(=O)c1ccc(Nc2cnc3cc(C(F)(F)F)ccc3n2)cc1)C(=O)OCC (centres undefined) | > 100 µM (inactive) | > 100 µM (inactive) | > 100 µM (inactive) | > 10 µM (inactive) | 27.7 µM (inactive) | > 100 µM (inactive) | > 100 µM (inactive) | 80.4 µM (inactive) | 18.5 µM (inactive) | > 79.6 µM (inactive) | 93.1 µM (inactive) | > 57 µM (inactive) | > 100 µM (inactive) | 36.7 µM (inactive) | 24.7 µM (inactive) | 1.9 µM (inactive) | 11 µM (inactive) | > 100 | 
6 | CC(C)(C)C(=O)OCOP(=O)(OCOC(=O)C(C)(C)C)OCC1OC(n2ccc(=O)[nH]c2=O)C(N=[N+]=[N-])C1O (centres undefined) | 2.53 µM (inactive) | 8.79 µM (inactive) | 1.48 µM (inactive) | 2.88 µM (inactive) | 4.45 µM (inactive) | 0.4 µM (active) | 10.3 µM (inactive) | 3.14 µM (inactive) | 3.91 µM (inactive) | 9.29 µM (inactive) | 19.1 µM (inactive) | 0.261 µM (active) | 7.74 µM (inactive) | 3.13 µM (inactive) | 10.4 µM (inactive) | 1.42 µM (inactive) | 2.37 µM (inactive) | 3.07 | 
7 | COC1(C)/C=N/CC(C)(C)NC(=O)C(C)(OC)/C=N/CC(C)(C)NC1=O (centres undefined) | > 10 µM (inactive) | > 10 µM (inactive) | > 10 µM (inactive) | > 10 µM (inactive) | > 10 µM (inactive) |  | > 10 µM (inactive) | > 10 µM (inactive) | > 10 µM (inactive) |  | > 10 µM (inactive) | > 10 µM (inactive) | > 10 µM (inactive) | > 10 µM (inactive) | > 10 µM (inactive) | > 10 µM (inactive) | > 10 µM (inactive) | > 10 | 
8 | C/C(=N\NC(=O)/C(C#N)=C\c1ccc(N(CCC#N)CCC#N)cc1)c1ccccc1 |  | > 10 µM (inactive) | > 10 µM (inactive) | > 10 µM (inactive) | > 10 µM (inactive) |  | > 10 µM (inactive) | > 10 µM (inactive) | > 10 µM (inactive) | > 10 µM (inactive) |  | > 10 µM (inactive) | > 10 µM (inactive) | > 10 µM (inactive) | > 10 µM (inactive) | > 10 µM (inactive) | > 10 µM (inactive) | > 10 | 
9 | CCOc1ncn(-c2ccc(NC(=S)NC3OC(CO)C(O)C(O)C3O)cc2)n1 (centres undefined) | > 100 µM (inactive) | > 100 µM (inactive) | > 100 µM (inactive) | > 100 µM (inactive) | > 100 µM (inactive) | > 100 µM (inactive) | > 100 µM (inactive) | > 100 µM (inactive) | > 100 µM (inactive) |  | > 100 µM (inactive) |  |  | > 100 µM (inactive) |  | > 100 µM (inactive) | > 100 µM (inactive) | > 100 | 
